# Reference: US6515020B1, “Combination of carnitines and resveratrol for prevention or treatment of cerebral and ageing disorders” (Sigma-Tau HealthScience S.p.A., priority 1998, dated 2003)
# What was measured:
# [1] = tested on: pheochromocytoma cells (PC-12); test: Survival of pheochromocytoma cells (PC-12) exposed to H2O2; type: cell-based; conditions: for survival rate: 0.1 mM H2O2 30 minutes
# Experimental: Tests of survival of pheochromocytoma cells (PC-12) exposed to H2O2 and treated with L-carnitine or resveratrol or with the two products in combination
# A culture of pheochromocytoma cells (PC-12) containing 3×10^5 N-cells/ml was exposed to 0.1 mM concentrations of H2O2 for 30 minutes. While the survival of the cells treated with H2O2 alone was approximately 45% after 24 hours, the survival of the cells treated with L-carnitine or with resveratrol was substantially greater, with survival rates of 55, 60 and 62%, respectively, for cells treated with L-carnitine, acetyl L-carnitine and propionyl L-carnitine at concentrations of 10^−8 M, and a survival rate of 69% for cells treated with resveratrol at the concentration of 10^−4 M.
# [2] = tested on: spontaneous motility of endothelin (ET-1)-treated mice; test: Spontaneous motility of mice reduced by intracerebral endothelin (ET-1); type: in vivo
# Description: One of the effects of a vasoactive peptide and neuromodulator such as endothelin is the influence it exerts on animal behaviour in reducing the animals' motility and vestibular reactions.
# In these tests, we were able to observe that the typical action of endothelin (ET-1) injected intracerebrally in mice at the dose of 1 pmol/mouse, which is to substantially reduce the animals' spontaneous motility, can be inhibited to a very significant extent by prior administration of carnitines and resveratrol, and, particularly, that the combination of these two types of substances is capable of acting synergistically, restoring the motility reduced by endothelin administration almost to normal values.
# The values were observed, keeping 10 mice at a time placed in a container with a photocell and an automatic movement counter; the count was done by observing the mice for periods of 5 minutes 15 minutes after the endothelin (ET-1) injection.
# [3] = tested on: sensory neuronal lesions induced by cisplatin; type: in vivo, mouse; conditions: cisplatin-treated mice; 10 animals per group
# Experimental: In these tests, cisplatin was used as a neuronal toxic factor, capable, particularly, of producing lesions in the sensory neurones and thus of impairing proprioceptive perception. The tests evaluated the ability of carnitines, resveratrol and combinations of these substances to restore peripheral sensory perception in the mouse impaired by injection of cisplatin. This ability was assessed by evaluating the reaction to thermal pain induced by a heated water solution in which the animals' tails were dipped according to the tail-flick test, or using the rotating bar test (Apfel S.C., Lipton R.B., Ann. Neurol., 29, 87-90, 1991).
# Cisplatin was administered subcutaneously at the dose of 10 mg/kg for eight consecutive days. Over the same period the mice received injections of 100 mg/kg of carnitines and 2.5 mg/kg of resveratrol or combinations of these products.
# The values observed, in fact, were 13.5 seconds in the animals treated with acetyl L-carnitine plus resveratrol and 14.4 seconds in those treated with propionyl L-carnitine plus resveratrol.
# [4] = carnitines 300 mg/kg intra-peritoneally for three days preceding and half an hour before ET-1 injection
SMILES,survival rate ([1]; carnitine at 10^−8 M),"motility reduction percentage [2, 4]",other results
OO [H2O2],,,"survival of the cells ([1]; 0.1 mM H2O2 alone for 30 minutes, after 24 hours): approximately 45%"
C[N+](C)(C)C[C@H](O)CC(=O)[O-] [L-carnitine],55%,69.6%,
CC(=O)O[C@H](CC(=O)[O-])C[N+](C)(C)C [acetyl L-carnitine],60%,65.5%,
CC[C@H](C)[C@H](NC(=O)[C@H](CC(=O)O)NC(=O)[C@H](CC(C)C)NC(=O)[C@H](Cc1c[nH]cn1)NC(=O)[C@@H]1CSSC[C@H](N)C(=O)N[C@@H](CO)C(=O)N[C@H]2CSSC[C@H](NC(=O)[C@H](CCC(=O)O)NC(=O)[C@H](CCCCN)NC(=O)[C@H](CC(=O)O)NC(=O)[C@H](CCSC)NC(=O)[C@H](CC(C)C)NC(=O)[C@H](CO)NC(=O)[C@H](CO)NC2=O)C(=O)N[C@@H](C(C)C)C(=O)N[C@@H](Cc2ccc(O)cc2)C(=O)N[C@@H](Cc2ccccc2)C(=O)N1)C(=O)N[C@H](C(=O)N[C@@H](Cc1c[nH]c2ccccc12)C(=O)O)[C@@H](C)CC [endothelin],,,"motility reduction percentage ([2]; endothelin alone, 1 pmol/mouse intracerebrally, count for 5 minutes, 15 minutes after injection): 85.5%"
CCC(=O)O[C@H](CC(=O)[O-])C[N+](C)(C)C [propionyl L-carnitine],62%,60.3%,
"Oc1ccc(/C=C/c2cc(O)cc(O)c2)cc1 [resveratrol, trans-3,4′,5-trihydroxy-stilbene]",,,"increase in equilibrium time [3]: significant increase; survival rate ([1]; resveratrol at 10^−4 M): 69%; motility reduction percentage ([2]; alone, resveratrol 2.5 mg/kg, ET-1 treated mice): 60.4%"
